The nature of this data set: CellTiter-Glo cell viability. Type of data set: cell-based. As to conditions: human, p53_construct Mut, CTG 4 days, read-out: mean (normalized viability). On the technique in general: In ATP-based viability assays light output follows the ATP content of the culture.

Read-outs that look alike come from different tables or passages of the source.

The viability is a read-out of living cells in per cent, often relative to untreated cells. As for `CC[C@@H]1C(=O)N(C)c2cnc(Nc3ccc(C(=O)NC4CCN(C)CC4)cc3OC)nc2N1C1CCCC1` [BI2536], the viability at 4 days worked out at 112% (Compound_conc 0.0488281); 115% (Compound_conc 0.0976562); 107% (Compound_conc 0.195312); 106% (Compound_conc 0.390625); 119% (Compound_conc 0.78125); 104% (Compound_conc 1.5625). Moreover, the viability at 4 days runs as follows: (Compound_conc 3.125) 113%; (Compound_conc 6.25) 84.3%; (Compound_conc 12.5) 70.7%; (Compound_conc 25) 62%; (Compound_conc 50) 47.3%; (Compound_conc 100) 41.4%.

The values are drawn from publication PMC13128454, “Mutant p53 protein accumulation is selectively targetable by proximity-inducing drugs” (Nature Chemical Biology, 2025).
